The term inhibition denotes the percentage by which the read-out fell short of the control.

From ChEMBL document CHEMBL5696442, “Discovery of type II inhibitors of TGFβ-activated kinase 1 (TAK1) and mitogen-activated protein kinase kinase kinase kinase 2 (MAP4K2)” (J Med Chem, 2015) come the findings set out here.

For assay [1], the target named is Maternal embryonic leucine zipper kinase (Homo sapiens) (UniProt Q14680). Kind of assay: Inhibition of MELK Lys2 labeling site in human A-375 cells at 0.5 uM by KiNativ Profiling analysis relative to control. The class given is cell-based.
Assay [2] addresses T1, NUAK family SNF1-like kinase 2 (Homo sapiens) (UniProt Q9H093).
T1 sequence (whole entry): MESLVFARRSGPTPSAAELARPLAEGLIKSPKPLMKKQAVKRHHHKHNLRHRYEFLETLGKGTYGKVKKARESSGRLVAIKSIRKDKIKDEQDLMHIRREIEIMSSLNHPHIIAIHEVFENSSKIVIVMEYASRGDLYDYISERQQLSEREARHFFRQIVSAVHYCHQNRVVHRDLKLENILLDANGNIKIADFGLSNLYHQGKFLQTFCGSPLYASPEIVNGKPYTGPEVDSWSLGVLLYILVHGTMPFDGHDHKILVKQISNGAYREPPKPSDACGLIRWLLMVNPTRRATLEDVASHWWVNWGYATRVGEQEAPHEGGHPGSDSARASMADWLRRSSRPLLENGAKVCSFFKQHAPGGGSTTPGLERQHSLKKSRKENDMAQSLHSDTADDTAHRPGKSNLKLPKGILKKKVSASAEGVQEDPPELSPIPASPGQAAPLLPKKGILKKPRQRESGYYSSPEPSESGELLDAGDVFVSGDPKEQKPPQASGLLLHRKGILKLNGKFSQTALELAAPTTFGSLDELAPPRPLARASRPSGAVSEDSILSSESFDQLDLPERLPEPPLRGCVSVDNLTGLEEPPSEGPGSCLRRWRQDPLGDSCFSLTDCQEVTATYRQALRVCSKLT
Kind of assay: Inhibition of SNARK (unknown origin) at 1 uM by Ambit Kinomescan binding assay relative to control.

The target in assay [3] is Vascular endothelial growth factor receptor 3 (Homo sapiens) (UniProt P35916). Put plainly: Inhibition of FLT4 (unknown origin) at 10 uM by Ambit Kinomescan binding assay relative to control.
Assay [4] deals with Phosphatidylinositol 4,5-bisphosphate 3-kinase catalytic subunit alpha isoform (Homo sapiens), P42336 [E545K]. Kind of assay: Inhibition of PIK3CA E545K mutant (unknown origin) at 10 uM by Ambit Kinomescan binding assay.
Assay [5] has as its target Calcium/calmodulin-dependent protein kinase type II subunit alpha (Homo sapiens) (UniProt Q9UQM7). Put plainly: Inhibition of CAMK2a K2 labeling site in human Huh-7 cells at 10 uM by KiNativ Profiling analysis relative to control. The class given is cell-based.
Assay [6] concerns Epidermal growth factor receptor (Homo sapiens), P00533 [L858R]. Put plainly: Inhibition of EGFR L858R mutant (unknown origin) at 10 uM by Ambit Kinomescan binding assay relative to control.
Assay [7] concerns the target Mitogen-activated protein kinase kinase kinase kinase 4 (Homo sapiens, UniProt O95819). Put plainly: Inhibition of ZC1/HGK Lys2 labeling site in human Huh-7 cells at 1 uM by KiNativ Profiling analysis relative to control. The class given is cell-based.
Assay [8] has as its target T2, Mitogen-activated protein kinase kinase kinase 2 (Homo sapiens) (UniProt Q9Y2U5).
T2 sequence (whole entry): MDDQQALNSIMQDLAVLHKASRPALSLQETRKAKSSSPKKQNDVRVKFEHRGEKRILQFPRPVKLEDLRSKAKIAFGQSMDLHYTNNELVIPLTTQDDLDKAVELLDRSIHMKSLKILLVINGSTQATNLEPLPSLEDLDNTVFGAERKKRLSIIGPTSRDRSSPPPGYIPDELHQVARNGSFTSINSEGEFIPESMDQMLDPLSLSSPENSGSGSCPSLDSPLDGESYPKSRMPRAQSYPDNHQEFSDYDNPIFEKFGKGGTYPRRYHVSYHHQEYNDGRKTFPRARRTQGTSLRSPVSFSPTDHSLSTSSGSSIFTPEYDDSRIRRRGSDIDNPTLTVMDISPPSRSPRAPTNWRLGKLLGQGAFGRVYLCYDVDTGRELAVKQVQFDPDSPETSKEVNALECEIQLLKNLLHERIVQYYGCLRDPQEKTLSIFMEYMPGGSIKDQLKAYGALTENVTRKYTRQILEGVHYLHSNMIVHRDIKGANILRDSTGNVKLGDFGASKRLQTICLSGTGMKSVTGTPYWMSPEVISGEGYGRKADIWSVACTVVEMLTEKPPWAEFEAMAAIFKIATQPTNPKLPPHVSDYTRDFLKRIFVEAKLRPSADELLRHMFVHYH
Put plainly: Inhibition of MAP3K2 Lys1 labeling site in human Huh-7 cells at 1 uM by KiNativ Profiling analysis relative to control. In kind it is cell-based.

Assay [9] concerns the target Serine/threonine-protein kinase 24 (Homo sapiens) (UniProt Q9Y6E0). Put plainly: Inhibition of MST3 Lys2 labeling site harbouring DIKAANVLLSEHGEVK in human Huh-7 cell lysate at 1 uM by KiNativ Profiling analysis relative to control. In kind it is subcellular.
Assay [10] deals with T3, Mitogen-activated protein kinase 13 (Homo sapiens) (UniProt O15264).
T3 sequence (whole entry): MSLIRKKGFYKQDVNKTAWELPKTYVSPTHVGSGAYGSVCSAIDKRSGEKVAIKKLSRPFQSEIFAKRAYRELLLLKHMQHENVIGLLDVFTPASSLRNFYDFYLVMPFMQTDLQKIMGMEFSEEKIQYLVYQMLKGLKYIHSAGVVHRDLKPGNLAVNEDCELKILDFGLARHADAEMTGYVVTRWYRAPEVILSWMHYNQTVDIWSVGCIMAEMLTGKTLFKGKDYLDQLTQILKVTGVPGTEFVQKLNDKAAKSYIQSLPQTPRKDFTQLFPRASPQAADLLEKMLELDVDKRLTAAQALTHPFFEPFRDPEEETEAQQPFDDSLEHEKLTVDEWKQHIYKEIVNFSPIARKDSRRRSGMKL
Kind of assay: Inhibition of p38delta Lys2 labeling site in human Huh-7 cells at 1 uM by KiNativ Profiling analysis relative to control. In kind it is cell-based.

The source made the active and inactive calls. The calls are words filed in the database; no cut-off is given here.

Sequence of Mitogen-activated protein kinase kinase kinase kinase 4 (O95819 2-1239 limits assumed): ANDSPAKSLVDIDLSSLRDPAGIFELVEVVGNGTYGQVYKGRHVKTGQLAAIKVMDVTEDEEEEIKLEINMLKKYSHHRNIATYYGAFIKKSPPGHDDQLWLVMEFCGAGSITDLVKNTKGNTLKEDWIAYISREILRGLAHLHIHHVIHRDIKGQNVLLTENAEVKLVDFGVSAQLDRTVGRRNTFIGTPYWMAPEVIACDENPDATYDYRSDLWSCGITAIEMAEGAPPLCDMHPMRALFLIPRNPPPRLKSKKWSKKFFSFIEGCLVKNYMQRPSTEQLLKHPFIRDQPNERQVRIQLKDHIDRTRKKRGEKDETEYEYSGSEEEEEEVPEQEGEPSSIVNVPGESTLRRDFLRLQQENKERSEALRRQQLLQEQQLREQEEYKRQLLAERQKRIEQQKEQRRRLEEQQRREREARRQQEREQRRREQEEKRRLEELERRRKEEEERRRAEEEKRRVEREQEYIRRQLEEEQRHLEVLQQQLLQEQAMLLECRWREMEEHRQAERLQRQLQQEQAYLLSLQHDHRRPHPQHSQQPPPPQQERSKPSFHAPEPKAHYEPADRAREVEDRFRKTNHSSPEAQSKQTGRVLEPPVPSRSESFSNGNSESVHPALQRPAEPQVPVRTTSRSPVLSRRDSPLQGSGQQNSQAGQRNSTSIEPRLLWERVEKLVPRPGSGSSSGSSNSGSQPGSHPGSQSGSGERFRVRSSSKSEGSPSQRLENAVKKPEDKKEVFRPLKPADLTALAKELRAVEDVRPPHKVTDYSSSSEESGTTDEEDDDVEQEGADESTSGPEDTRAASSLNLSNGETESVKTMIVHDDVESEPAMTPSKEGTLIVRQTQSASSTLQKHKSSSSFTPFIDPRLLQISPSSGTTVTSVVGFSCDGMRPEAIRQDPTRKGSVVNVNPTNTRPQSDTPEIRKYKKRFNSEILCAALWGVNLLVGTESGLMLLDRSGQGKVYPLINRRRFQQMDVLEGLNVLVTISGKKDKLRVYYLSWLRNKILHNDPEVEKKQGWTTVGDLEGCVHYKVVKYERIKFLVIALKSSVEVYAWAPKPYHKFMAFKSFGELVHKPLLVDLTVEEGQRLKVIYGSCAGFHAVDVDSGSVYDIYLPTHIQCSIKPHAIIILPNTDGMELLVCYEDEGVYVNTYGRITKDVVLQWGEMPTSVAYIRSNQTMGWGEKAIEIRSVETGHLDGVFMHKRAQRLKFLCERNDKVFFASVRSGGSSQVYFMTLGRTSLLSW
Sequence of Calcium/calmodulin-dependent protein kinase type II subunit alpha (Homo sapiens) (Q9UQM7 whole entry): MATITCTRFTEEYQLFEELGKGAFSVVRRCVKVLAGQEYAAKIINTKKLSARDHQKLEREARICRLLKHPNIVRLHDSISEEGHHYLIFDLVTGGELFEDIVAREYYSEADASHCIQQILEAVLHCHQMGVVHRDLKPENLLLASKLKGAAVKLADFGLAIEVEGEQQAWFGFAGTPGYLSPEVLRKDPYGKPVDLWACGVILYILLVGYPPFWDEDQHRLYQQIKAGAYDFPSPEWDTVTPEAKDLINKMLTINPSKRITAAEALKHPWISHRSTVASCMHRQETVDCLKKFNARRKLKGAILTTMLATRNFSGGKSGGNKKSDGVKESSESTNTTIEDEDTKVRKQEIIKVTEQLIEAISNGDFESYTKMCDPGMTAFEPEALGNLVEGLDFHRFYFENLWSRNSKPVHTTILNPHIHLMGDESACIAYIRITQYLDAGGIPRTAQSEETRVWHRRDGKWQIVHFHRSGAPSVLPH
Sequence of Vascular endothelial growth factor receptor 3 (Homo sapiens) (P35916 whole entry, canonical isoform): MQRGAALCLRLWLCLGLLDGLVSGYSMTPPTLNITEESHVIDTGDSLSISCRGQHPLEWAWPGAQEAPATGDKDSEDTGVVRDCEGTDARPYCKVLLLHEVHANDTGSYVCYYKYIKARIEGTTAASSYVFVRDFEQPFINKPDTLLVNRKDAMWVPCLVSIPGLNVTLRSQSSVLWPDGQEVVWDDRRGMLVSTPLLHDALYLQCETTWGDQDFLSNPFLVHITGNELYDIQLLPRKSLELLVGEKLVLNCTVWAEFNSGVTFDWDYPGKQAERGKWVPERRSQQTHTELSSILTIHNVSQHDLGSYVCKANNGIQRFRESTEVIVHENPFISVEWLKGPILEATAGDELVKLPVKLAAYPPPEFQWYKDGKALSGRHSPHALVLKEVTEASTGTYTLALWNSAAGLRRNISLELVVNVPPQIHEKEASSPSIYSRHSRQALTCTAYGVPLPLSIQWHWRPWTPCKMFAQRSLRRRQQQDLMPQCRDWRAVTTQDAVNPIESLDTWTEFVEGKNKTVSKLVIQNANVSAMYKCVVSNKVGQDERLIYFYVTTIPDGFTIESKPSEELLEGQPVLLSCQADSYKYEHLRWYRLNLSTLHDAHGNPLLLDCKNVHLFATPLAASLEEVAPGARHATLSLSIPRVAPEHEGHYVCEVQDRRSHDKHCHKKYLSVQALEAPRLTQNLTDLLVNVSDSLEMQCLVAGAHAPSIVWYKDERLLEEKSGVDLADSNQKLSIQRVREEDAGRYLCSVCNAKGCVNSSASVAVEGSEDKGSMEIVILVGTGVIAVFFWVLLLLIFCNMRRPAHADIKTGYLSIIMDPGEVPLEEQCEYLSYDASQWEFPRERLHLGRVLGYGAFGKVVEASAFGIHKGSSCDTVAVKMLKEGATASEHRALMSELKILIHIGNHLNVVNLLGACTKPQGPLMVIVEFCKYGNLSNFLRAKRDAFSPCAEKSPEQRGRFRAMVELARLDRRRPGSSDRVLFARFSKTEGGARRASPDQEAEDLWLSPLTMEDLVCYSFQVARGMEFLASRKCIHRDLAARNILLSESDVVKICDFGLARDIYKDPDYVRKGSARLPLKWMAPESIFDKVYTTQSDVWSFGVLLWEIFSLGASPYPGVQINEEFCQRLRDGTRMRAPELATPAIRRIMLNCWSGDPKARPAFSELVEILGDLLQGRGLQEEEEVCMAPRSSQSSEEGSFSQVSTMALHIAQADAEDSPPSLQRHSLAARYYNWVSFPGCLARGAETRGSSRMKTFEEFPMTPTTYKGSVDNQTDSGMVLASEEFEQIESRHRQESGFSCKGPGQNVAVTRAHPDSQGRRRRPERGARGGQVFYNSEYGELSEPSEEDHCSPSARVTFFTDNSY
Sequence of Serine/threonine-protein kinase 24 (Homo sapiens) (Q9Y6E0 whole entry, looked up): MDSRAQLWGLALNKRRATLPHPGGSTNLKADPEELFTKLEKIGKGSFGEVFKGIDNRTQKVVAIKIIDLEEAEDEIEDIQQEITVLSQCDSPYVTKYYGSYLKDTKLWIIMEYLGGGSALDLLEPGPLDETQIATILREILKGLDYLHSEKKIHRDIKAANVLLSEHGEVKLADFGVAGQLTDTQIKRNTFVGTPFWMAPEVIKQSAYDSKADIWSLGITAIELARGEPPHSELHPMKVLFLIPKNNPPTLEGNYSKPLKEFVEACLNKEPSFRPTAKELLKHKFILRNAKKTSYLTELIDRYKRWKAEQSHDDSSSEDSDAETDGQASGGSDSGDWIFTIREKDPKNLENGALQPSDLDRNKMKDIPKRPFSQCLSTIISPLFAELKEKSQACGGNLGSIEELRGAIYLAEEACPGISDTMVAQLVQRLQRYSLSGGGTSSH
Sequence of Epidermal growth factor receptor (Homo sapiens), P00533 [L858R] (P00533 whole entry L858R): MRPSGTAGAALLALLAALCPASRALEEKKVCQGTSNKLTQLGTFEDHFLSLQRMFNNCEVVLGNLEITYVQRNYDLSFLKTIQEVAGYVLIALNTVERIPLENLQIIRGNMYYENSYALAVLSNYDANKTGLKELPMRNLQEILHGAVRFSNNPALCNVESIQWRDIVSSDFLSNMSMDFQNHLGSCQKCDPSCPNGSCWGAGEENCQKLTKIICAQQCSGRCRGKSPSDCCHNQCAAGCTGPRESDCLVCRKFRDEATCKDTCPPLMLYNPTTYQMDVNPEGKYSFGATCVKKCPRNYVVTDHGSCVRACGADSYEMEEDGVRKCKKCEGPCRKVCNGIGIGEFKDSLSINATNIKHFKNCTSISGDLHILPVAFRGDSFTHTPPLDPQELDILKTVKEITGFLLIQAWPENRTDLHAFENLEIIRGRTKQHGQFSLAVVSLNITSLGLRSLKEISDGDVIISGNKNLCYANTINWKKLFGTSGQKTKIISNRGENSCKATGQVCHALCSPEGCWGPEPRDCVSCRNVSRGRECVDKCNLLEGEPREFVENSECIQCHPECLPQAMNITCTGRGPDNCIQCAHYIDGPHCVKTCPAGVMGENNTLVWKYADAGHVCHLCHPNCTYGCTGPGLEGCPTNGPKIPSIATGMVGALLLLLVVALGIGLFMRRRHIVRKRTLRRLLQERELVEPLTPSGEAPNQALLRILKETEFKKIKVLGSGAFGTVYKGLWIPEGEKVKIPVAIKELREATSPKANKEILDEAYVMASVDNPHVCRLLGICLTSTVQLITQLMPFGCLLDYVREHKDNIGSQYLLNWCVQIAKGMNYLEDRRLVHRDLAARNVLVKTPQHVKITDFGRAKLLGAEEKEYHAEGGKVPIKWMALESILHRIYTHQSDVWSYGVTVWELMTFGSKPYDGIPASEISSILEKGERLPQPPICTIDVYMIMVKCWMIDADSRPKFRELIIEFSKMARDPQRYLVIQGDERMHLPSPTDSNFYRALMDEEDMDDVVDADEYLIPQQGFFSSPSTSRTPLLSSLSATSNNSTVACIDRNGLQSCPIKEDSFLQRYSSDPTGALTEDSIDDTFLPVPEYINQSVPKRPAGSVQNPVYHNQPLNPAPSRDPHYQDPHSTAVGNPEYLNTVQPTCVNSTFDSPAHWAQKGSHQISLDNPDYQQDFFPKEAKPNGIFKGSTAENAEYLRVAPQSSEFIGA

Turning to `CCN1CCN(Cc2ccc(NC(=O)c3ccc(C)c(/C=C/c4cnc5[nH]ccc5c4OC)c3)cc2C(F)(F)F)CC1`, the results for the inhibition in assay [1] and in assay [2] were 1.9% and 76%, respectively.

`CCN1CCN(Cc2ccc(NC(=O)c3ccc(C)c(Oc4ccnc5[nH]ccc45)c3)cc2C(F)(F)F)CC1`: the inhibition was found to be 0.2% in assay [3], 6.2% in [5] and 14% in [6]. The inhibition result in assay [4] was “inactive”.

Turning to `CNc1cc(Oc2cc(C(=O)Nc3cc(N4CCN(C)CC4)cc(C(F)(F)F)c3)ccc2C)ncn1`, the inhibition is 9.7% in assay [7], 28.2% in assay [8], 5.5% in assay [9] and 13% in assay [10].
